Data published in ChEMBL document CHEMBL1201862, “PubChem BioAssay data set” (2004).
Calls of active or inactive are those of the source.

Tests used:
Galanin receptor type 3 = Galanin receptor type 3 (Homo sapiens, UniProt O60755); test: Fluorescence-based cell-based primary high throughput dose response assay to identify antagonists of the Galanin Receptor 3 (GalR3).; type: functional
cells [1] = type: functional, cell-based; conditions: HEK-CNG
[2] = target: T1, Sentrin-specific protease 8 (Homo sapiens, UniProt Q96LD8); type: functional
T1 sequence (Q96LD8 whole entry): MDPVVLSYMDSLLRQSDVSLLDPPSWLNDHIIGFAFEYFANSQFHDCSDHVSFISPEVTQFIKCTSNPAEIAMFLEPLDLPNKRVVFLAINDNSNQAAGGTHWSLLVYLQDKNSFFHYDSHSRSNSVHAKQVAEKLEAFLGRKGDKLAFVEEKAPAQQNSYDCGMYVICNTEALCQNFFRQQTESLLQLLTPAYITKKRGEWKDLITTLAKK

[3] = target: T1, Sentrin-specific protease 8; type: functional; remark: listed apart in the source
[4] = target: T2, Heat shock factor protein 1 (Mus musculus, UniProt P38532); test: HSF1 potentiators in luciferase reporter cells, confirmation, cell-based, NIH3T3, luminescence, dose retest (AID 435004); type: functional;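 also: stress induced by proteasome inhibitor MG132 added 30 min after compound; luciferase reporter driven by HSF1 response element in NIH3T3 cells; actives raise luminescence as potentiators of the MG132 stress response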
T2 sequence (P38532 whole entry): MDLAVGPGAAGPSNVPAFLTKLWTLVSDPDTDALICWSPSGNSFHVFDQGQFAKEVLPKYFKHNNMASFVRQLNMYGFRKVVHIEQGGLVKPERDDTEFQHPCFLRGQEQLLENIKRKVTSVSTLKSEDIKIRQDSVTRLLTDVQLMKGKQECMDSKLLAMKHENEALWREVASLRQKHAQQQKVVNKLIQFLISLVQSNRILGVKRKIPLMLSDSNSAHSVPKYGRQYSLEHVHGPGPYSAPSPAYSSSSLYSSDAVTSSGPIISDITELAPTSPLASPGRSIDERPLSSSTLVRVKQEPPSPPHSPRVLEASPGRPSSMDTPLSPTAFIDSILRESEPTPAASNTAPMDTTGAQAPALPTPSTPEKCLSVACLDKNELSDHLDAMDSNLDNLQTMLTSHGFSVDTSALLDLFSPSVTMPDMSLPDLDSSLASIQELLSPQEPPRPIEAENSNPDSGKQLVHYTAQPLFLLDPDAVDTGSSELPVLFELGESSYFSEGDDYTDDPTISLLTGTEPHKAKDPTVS

cells [5] = type: functional, cell-based
[6] = target: T3, Trace amine-associated receptor 1 (Homo sapiens, UniProt Q96RJ0); test: Counterscreen for agonists of the human trace amine associated receptor 1 (hTAAR1): Fluorescence-based cell-based high throughput dose response assay to identify hTAAR1 agonist that also desensitize TAAR1 receptor response.; type: functional
T3 sequence (Q96RJ0 whole entry): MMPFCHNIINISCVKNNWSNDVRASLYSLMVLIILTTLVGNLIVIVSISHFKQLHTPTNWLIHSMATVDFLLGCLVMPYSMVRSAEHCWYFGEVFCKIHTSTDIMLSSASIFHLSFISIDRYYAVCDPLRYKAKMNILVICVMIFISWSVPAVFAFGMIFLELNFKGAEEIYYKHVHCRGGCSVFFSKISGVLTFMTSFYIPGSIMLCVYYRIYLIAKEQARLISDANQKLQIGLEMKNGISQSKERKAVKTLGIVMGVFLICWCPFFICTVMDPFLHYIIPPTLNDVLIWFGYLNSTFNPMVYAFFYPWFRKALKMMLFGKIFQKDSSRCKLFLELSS

cells [7] = type: functional, cell-based; remark: listed apart in the source
[8] = target: T3, Trace amine-associated receptor 1; test: Fluorescence-based cell-based high throughput dose response assay to identify agonists of the human trace amine associated receptor 1 (TAAR1).; type: functional
cells [9] = test: cells
Major prion protein = Major prion protein (Homo sapiens, UniProt P04156); type: functional, cell-based
[10] = target: T4, Small ubiquitin-related modifier 1 (Homo sapiens, UniProt P63165); test: inhibitors of SUMO1 peptide binding, dose response, biochemical, fluorescence polarization, uHTS hits (AID 624382); type: functional; conditions: read-out: IC50_Mean
T4 sequence (P63165 whole entry): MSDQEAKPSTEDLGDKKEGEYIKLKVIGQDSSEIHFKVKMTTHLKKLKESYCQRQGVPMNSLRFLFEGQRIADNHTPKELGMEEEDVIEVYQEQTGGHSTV

[11] = target: T4, Small ubiquitin-related modifier 1; test: inhibitors of SUMO1 partner interactions, dose response, biochemical, FRET (AID 624383); type: functional; conditions: read-out: IC50_Mean
Vero = test: cells; type: functional; conditions: Chlorocebus sabaeus
[12] = target: T5, Low molecular weight phosphotyrosine protein phosphatase (Homo sapiens, UniProt P24666); type: functional; conditions: read-out: IC50_Mean;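 also: Dose-response confirmation assay measuring inhibition of LMPTP enzyme activity by fluorescence intensity read-out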
T5 sequence (P24666 whole entry): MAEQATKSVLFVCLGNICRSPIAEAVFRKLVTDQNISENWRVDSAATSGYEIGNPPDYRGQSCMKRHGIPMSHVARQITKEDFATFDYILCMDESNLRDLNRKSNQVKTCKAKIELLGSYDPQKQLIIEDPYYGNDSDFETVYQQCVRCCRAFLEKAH

Protein RecA = target: T6, Protein RecA (Mycobacterium tuberculosis, UniProt P9WHJ3); test: Fluorescence Cell-Free Homogeneous Dose Retest to Identify Inhibitors of RecA-Intein Splicing Activity. [Related pubchem assays (depositor defined):AID2097, AID2223, AID489010, AID492950]; type: functional
T6 sequence (P9WHJ3 whole entry): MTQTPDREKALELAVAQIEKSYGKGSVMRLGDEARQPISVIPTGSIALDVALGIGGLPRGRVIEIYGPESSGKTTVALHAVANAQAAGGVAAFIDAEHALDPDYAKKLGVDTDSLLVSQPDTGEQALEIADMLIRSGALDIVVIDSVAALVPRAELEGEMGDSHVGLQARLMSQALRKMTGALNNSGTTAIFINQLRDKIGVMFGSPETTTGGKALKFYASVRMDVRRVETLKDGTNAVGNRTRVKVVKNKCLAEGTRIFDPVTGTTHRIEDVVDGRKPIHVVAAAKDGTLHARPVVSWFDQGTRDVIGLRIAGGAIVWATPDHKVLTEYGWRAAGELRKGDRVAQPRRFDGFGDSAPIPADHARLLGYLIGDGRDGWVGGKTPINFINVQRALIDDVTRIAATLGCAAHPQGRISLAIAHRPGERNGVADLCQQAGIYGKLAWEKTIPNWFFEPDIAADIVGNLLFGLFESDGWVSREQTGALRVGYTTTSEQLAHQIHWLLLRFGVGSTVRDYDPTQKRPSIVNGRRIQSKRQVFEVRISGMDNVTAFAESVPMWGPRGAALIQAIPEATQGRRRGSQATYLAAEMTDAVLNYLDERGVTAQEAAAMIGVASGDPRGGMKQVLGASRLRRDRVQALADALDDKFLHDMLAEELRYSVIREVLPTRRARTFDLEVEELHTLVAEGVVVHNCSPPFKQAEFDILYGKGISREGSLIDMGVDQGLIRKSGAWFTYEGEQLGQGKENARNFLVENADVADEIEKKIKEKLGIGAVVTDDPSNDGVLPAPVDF

[13] = target: T7, Replicative DNA helicase DnaB (Mycobacterium tuberculosis, UniProt P9WMR3); test: DnaB intein splicing inhibitors, dose response, biochemical, cell-free fluorescence (AID 449749); type: functional
T7 sequence (P9WMR3 whole entry): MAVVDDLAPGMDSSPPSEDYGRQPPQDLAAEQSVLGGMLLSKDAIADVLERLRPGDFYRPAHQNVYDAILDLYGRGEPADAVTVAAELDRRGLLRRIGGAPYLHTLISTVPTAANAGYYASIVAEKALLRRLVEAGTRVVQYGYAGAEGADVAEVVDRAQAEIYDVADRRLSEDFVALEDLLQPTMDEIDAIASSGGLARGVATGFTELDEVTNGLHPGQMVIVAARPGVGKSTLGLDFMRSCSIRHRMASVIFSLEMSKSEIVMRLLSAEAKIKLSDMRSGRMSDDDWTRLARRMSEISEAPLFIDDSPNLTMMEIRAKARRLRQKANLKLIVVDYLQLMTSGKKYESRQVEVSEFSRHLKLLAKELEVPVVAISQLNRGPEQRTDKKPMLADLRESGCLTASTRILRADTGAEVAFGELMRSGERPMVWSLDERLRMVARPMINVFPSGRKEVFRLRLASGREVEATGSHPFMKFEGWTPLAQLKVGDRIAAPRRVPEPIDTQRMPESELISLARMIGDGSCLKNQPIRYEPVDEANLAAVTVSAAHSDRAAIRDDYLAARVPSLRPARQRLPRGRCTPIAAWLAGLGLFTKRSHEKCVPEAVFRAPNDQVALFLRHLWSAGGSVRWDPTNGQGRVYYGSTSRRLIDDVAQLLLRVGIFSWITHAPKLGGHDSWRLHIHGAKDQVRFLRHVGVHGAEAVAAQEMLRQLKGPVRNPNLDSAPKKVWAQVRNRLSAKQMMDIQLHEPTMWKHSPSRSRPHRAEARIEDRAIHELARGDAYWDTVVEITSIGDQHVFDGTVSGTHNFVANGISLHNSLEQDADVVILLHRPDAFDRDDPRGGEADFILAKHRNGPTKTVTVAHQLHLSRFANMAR

Sequence of Galanin receptor type 3 (O60755 whole entry): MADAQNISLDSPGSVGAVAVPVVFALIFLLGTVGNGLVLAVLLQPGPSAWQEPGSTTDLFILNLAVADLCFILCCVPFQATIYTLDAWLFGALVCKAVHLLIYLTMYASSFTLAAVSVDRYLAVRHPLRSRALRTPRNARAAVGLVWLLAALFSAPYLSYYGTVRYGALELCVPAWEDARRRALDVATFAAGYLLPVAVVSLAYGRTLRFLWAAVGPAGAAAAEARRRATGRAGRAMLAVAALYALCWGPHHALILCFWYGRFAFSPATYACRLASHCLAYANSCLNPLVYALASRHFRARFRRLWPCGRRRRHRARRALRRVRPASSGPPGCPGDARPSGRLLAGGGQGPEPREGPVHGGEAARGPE

Cc1cc(C(=O)CSc2nc(N)cc(O)n2)c(C)n1-c1ccc(OC(F)F)cc1
IC50 (Galanin receptor type 3): 2.9 µM (active) | EC50 (cells [1]): > 29.9 µM (inactive)

CCN(CC)c1ccc(NC2CC(=O)N(CCc3ccc(OC)cc3)C2=O)cc1 (stereo unspecified)
IC50 [2]: > 100 µM (inactive) | IC50 [3]: 45.2 µM (active)

Cc1c(CNCCc2ccccc2)c(C(=O)O)c(C)n1-c1ccccc1
EC50 [4]: > 260 µM (inactive) | EC50 (cells [5]): > 29.9 µM (inactive) | IC50 [6]: 8.17 µM (active) | IC50 (cells [7]): > 29.9 µM (inactive) | EC50 [8]: 1.78 µM (active)

COc1ccc(C(=O)NNC(=O)CSc2nc(C(C)C)nc3ccccc23)cc1
IC50 (cells [9]): > 138 µM (inactive) | IC50 (Major prion protein): 1.98 µM (active)

O=C(Nc1ccc2oc(=O)ccc2c1)c1ccc(-c2cccc([N+](=O)[O-])c2)o1
IC50 [10]: > 66.6 µM (inactive) | IC50 [11]: 2.43 µM (active) | CC50 (Vero): 8.41 µM (active) | IC50 [12]: 25.5 µM (inactive)

CC1=NN(c2ccc(S(=O)(=O)O)cc2C)C(=O)C1
IC50 [2]: 28 µM (active) | IC50 [3]: 21.8 µM (active) | EC50 (Protein RecA): 4.57 µM (active) | AC50 [13]: 3.99 µM (active)

O=c1[nH]c(=O)n(Cc2ccco2)c2c1C(C(F)(F)F)(C(F)(F)F)NC(CCc1ccccc1)=N2
IC50 (cells [9]): 54.4 µM (inactive) | IC50 (Major prion protein): 8.51 µM (active)
